Here are results for 1 compound from patent US20190262357A1, “PREVENTATIVE OR THERAPEUTIC AGENT FOR PULMONARY HY[…] CRUDE DRUG COMPONENT” (TOHOKU UNIVERSITY, priority 2016, published 2019).

The experiment concerns pulmonary artery smooth muscle cells derived from patients with idiopathic pulmonary arterial hypertension (IPAH-PASMCs). Put plainly: Suppression of proliferation of IPAH-PASMCs (MTT assay). The experiment is classed as cell-based, human. Particulars: 0.001-5 μM celastrol, 48 hours. The protocol: The ability of celastrol to suppress the proliferation of pulmonary artery smooth muscle cells from patients with pulmonary hypertension (IPAH-PASMCs) was assessed. Specifically, first, on day −1, 66 μl each of pulmonary artery smooth muscle cells derived from patients with idiopathic pulmonary arterial hypertension (IPAH-PASMCs) suspended in a 10% FBS medium (DMEM supplemented with 10% FBS) were seeded in a 96-well plate at 50,000 cells/ml. 24 Hours after the cell seeding (the time point was defined as day 0), 33 μl each of 0.003 μM, 0.03 μM, 0.3 μM, 3 μM, and 15 μM solutions of celastrol in 10% FBS containing 1% DMSO were added to the wells so that the final concentrations were 0.001 μM, 0.01 μM, 0.1 μM, 1 μM, and 5 μM, respectively. As a control, 33 μl of 10% FBS containing 1% DMSO was added in place of celastrol. On day 0 (immediately before the addition of celastrol), a cell viability was confirmed by performing MTT assay using CellTiter 96 (trademark) AQueous One Solution Cell Proliferation Assay (promega). Further, on day 2, i.e., 48 hours after the addition of celastrol, the MTT assay was performed again to observe a change in cell viability. Thus, a cell proliferation-suppressing effect was assessed.

The structures appear in SMILES notation.

For the compound `CC1=C(O)C(=O)C=C2C1=CC=C1[C@@]2(C)CC[C@@]2(C)[C@@H]3C[C@](C)(C(=O)O)CC[C@]3(C)CC[C@]12C` [celastrol, (2R,4aS,6aS,12bR,14aS,14bR)-10-hydroxy-2,4a,6a,9,12b,14a-hexamethyl-11-oxo-1,2,3,4,4a,5,6,6a,11,12b,13,14,14a,14b-tetradecahydropicene-2-carboxylic acid], the cell proliferation-suppressing effect result is given as “a cell proliferation-suppressing effect on pulmonary artery smooth muscle cells derived from patients with idiopathic pulmonary arterial hypertension was obtained”.
